Some test systems named below: NCI-H522 lung; LOX IMVI melanoma; A498 renal; OVCAR-3 ovarian; NCI-H460 lung; COLO 205 colon; HOP-92 NSCLC; MALME-3M melanoma; HCT-15 colon; OVCAR-4 ovarian.
What all share (test): NCI anticancer screen, dose series, 48 h

Values joined by “and” are separate entries in the source; they are usually repeats but may differ in a detail not shown here. Equal values may be shown once.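 Growth conditions: 96-well plates. Treatment: test compound, 48 hours, 5 concentrations. Analysis: linear interpolation between bracketing concentrations; unreached endpoints set to highest concentration. GI50 = concentration required for 50% inhibition of growth. At the TGI there is no net growth.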 Where only a bound is given, the exact number is not on record here.

`Cn1cc(S(=O)(=O)N2CCC3=Cc4c(cnn4-c4ccc(F)cc4)C[C@]3(C(=O)c3cc(C(F)(F)F)ccn3)C2)cn1`: the GI50 was more than 100 µM with NCI-H522 lung; more than 100 µM with LOX IMVI melanoma; 4.64 µM in the assay on A498 renal; more than 100 µM in the assay on OVCAR-3 ovarian; more than 100 µM with NCI-H460 lung; more than 100 µM in the assay with COLO 205 colon. Further, the GI50 is 6.57 µM in the assay with HOP-92 NSCLC, more than 100 µM with MALME-3M melanoma, more than 100 µM with HCT-15 colon and more than 100 µM in the assay on OVCAR-4 ovarian. In addition, the TGI in the assay on NCI-H522 lung, in the assay with LOX IMVI melanoma, with A498 renal, with OVCAR-3 ovarian, in the assay with NCI-H460 lung and in the assay with COLO 205 colon was more than 100 µM in each case. Further, the TGI in the assay with HOP-92 NSCLC, with MALME-3M melanoma, in the assay on HCT-15 colon and in the assay on OVCAR-4 ovarian was more than 100 µM in each case.

As to `COc1ccc(-c2noc(N)c2-c2cc(OC)c3c(c2)OCO3)cc1`, the GI50 in the assay with NCI-H522 lung was 1.24 µM; in the assay with LOX IMVI melanoma it was 4.02 µM; with A498 renal, 1.24 µM; in the assay on OVCAR-3 ovarian, 2.53 µM; in the assay with NCI-H460 lung, 3.13 µM; in the assay on COLO 205 colon, 2.34 µM. The GI50 with HOP-92 NSCLC is 2.47 µM; with MALME-3M melanoma, 9.66 µM; with HCT-15 colon it was 0.616 µM; in the assay with OVCAR-4 ovarian, 24.3 µM. Also, the TGI in the assay on LOX IMVI melanoma was more than 100 µM; in the assay on A498 renal, 7.55 µM; with OVCAR-3 ovarian, 12.9 µM; in the assay with NCI-H460 lung, 28 µM; in the assay on COLO 205 colon, 9.41 µM; in the assay with HOP-92 NSCLC it was 76.8 µM. Moreover, the TGI with MALME-3M melanoma, in the assay on HCT-15 colon and in the assay on OVCAR-4 ovarian was more than 100 µM in each case.

Turning to `NCCN.O=C([O-])[O-].O=C([O-])[O-].[Co+3].[K+]`, the GI50 in the assay on NCI-H522 lung, in the assay on LOX IMVI melanoma, in the assay on A498 renal, in the assay on OVCAR-3 ovarian, in the assay on NCI-H460 lung and in the assay on COLO 205 colon was more than 100 µM each time. The GI50 in the assay with HOP-92 NSCLC is 49.4 µM and 75.2 µM; in the assay with MALME-3M melanoma, more than 100 µM; with HCT-15 colon, more than 100 µM; in the assay on OVCAR-4 ovarian, more than 100 µM. Moreover, the TGI with NCI-H522 lung, in the assay on LOX IMVI melanoma, in the assay with A498 renal, in the assay with OVCAR-3 ovarian, with NCI-H460 lung and in the assay on COLO 205 colon was more than 100 µM throughout. The TGI in the assay with HOP-92 NSCLC, in the assay on MALME-3M melanoma, with HCT-15 colon and with OVCAR-4 ovarian was more than 100 µM each time.

As to `COc1ccc(/C=C/c2cnccn2)cc1OC`, the TGI with NCI-H522 lung, in the assay on LOX IMVI melanoma, with A498 renal, in the assay on OVCAR-3 ovarian, with NCI-H460 lung and in the assay on COLO 205 colon was more than 10 µM throughout. The TGI with HOP-92 NSCLC, in the assay on MALME-3M melanoma, with HCT-15 colon and with OVCAR-4 ovarian was more than 10 µM throughout.

In the case of `COc1cc2c3c(n(CCCN(C)CCO)c(=O)c2cc1OC)-c1cc2c(cc1C3=O)OCO2`, the GI50 was 2.16 µM in the assay on NCI-H522 lung; 0.709 µM in the assay on LOX IMVI melanoma; 8.19 µM in the assay with A498 renal; 35.9 µM with OVCAR-3 ovarian; 1.89 µM in the assay on NCI-H460 lung; 12.6 µM with COLO 205 colon. For the same compound, the GI50 is 2.82 µM with HOP-92 NSCLC, more than 55.7 µM in the assay with MALME-3M melanoma, 6.79 µM with HCT-15 colon and 30.9 µM with OVCAR-4 ovarian. In addition, the TGI was more than 46 µM with NCI-H522 lung; 13.9 µM in the assay on LOX IMVI melanoma; more than 40.2 µM in the assay with A498 renal; more than 100 µM in the assay with OVCAR-3 ovarian; more than 100 µM in the assay on NCI-H460 lung; more than 100 µM in the assay on COLO 205 colon. Further, the TGI with HOP-92 NSCLC is 35.1 µM; in the assay with MALME-3M melanoma, more than 100 µM; in the assay with HCT-15 colon, more than 100 µM; in the assay on OVCAR-4 ovarian it was more than 72.4 µM.

`Cc1c(Cl)cccc1NC(=O)c1cccc([N+](=O)[O-])c1O`: the TGI in the assay with NCI-H522 lung was 31.6 µM; in the assay with LOX IMVI melanoma, 36.3 µM; in the assay on A498 renal it was 45.9 µM; in the assay on OVCAR-3 ovarian, 51.4 µM; in the assay with NCI-H460 lung, 43.3 µM; with COLO 205 colon, 27.3 µM. Further, the TGI was 7.88 µM in the assay on HOP-92 NSCLC, 38.7 µM with MALME-3M melanoma, more than 100 µM in the assay with HCT-15 colon and more than 70.1 µM in the assay on OVCAR-4 ovarian.

`Clc1nc(Cl)c2ncn(Cc3ccccc3Cn3cnc4c(Cl)nc(Cl)nc43)c2n1`: the GI50 in the assay with NCI-H522 lung is 4.28 µM; in the assay on LOX IMVI melanoma, 1.16 µM; with A498 renal, 11.2 µM; in the assay on OVCAR-3 ovarian, 1.47 µM; in the assay with NCI-H460 lung it was 3.07 µM; in the assay with COLO 205 colon, 2.89 µM. In addition, the GI50 is 1.9 µM in the assay with HOP-92 NSCLC, 0.211 µM in the assay on MALME-3M melanoma, 1.47 µM in the assay with HCT-15 colon and 2 µM in the assay on OVCAR-4 ovarian. Besides, the TGI with NCI-H522 lung was 13.7 µM; in the assay on LOX IMVI melanoma, 2.65 µM; in the assay with A498 renal it was 27.7 µM; with OVCAR-3 ovarian, 2.85 µM; with NCI-H460 lung, 11.7 µM; in the assay on COLO 205 colon, more than 26.3 µM. Besides, the TGI was 4.16 µM with HOP-92 NSCLC, 6.18 µM with MALME-3M melanoma, 3.32 µM with HCT-15 colon and 4.05 µM in the assay on OVCAR-4 ovarian.

Take `CNCCn1c(=O)c2cc(OC)c(OC)cc2c2cnc3cc4c(cc3c21)OCO4`: the GI50 is less than 0.01 µM in the assay on NCI-H522 lung; less than 0.01 µM in the assay on LOX IMVI melanoma; 0.0194 µM in the assay on A498 renal; 0.0393 µM in the assay on OVCAR-3 ovarian; less than 0.01 µM in the assay with NCI-H460 lung; 0.0304 µM in the assay with COLO 205 colon. Further, the GI50 in the assay with HOP-92 NSCLC is less than 0.0149 µM; with MALME-3M melanoma, 0.05 µM; in the assay with HCT-15 colon, 0.0359 µM; in the assay on OVCAR-4 ovarian it was 0.0347 µM. Further, the TGI in the assay on NCI-H522 lung is 0.0261 µM; in the assay with LOX IMVI melanoma, 0.1 µM; in the assay with A498 renal it was 0.135 µM; with OVCAR-3 ovarian, 2.02 µM; in the assay with NCI-H460 lung it was 0.217 µM; with COLO 205 colon, 2.06 µM. The TGI in the assay on HOP-92 NSCLC worked out at 0.518 µM; with MALME-3M melanoma it was 5.75 µM; in the assay with HCT-15 colon, 1.55 µM; in the assay on OVCAR-4 ovarian it was 2.21 µM.

Consider `COc1ccc(-c2ccc(NNC(=O)c3ccc(F)cc3)nn2)cc1OC`, for which the GI50 with NCI-H522 lung was 54.3 µM; in the assay with LOX IMVI melanoma, 67.6 µM; in the assay with A498 renal, more than 100 µM; in the assay with OVCAR-3 ovarian it was 79.7 µM; in the assay on NCI-H460 lung, more than 100 µM; in the assay on COLO 205 colon, more than 100 µM. The GI50 in the assay with HOP-92 NSCLC was 17.8 µM; with MALME-3M melanoma, more than 100 µM; with HCT-15 colon it was 65.5 µM; with OVCAR-4 ovarian, 55.3 µM. The TGI in the assay with NCI-H522 lung, in the assay with LOX IMVI melanoma, with A498 renal, with OVCAR-3 ovarian, with NCI-H460 lung and in the assay with COLO 205 colon was more than 100 µM each time. Also, the TGI with HOP-92 NSCLC was 99.3 µM; in the assay with MALME-3M melanoma, more than 100 µM; in the assay on HCT-15 colon, more than 100 µM; in the assay with OVCAR-4 ovarian, more than 100 µM.

Consider `CCOC(=O)c1sc(NC(=O)COc2cccc(/C=C3\CCc4cc(OC)ccc4C3=O)c2)nc1C`, for which the GI50 with NCI-H522 lung was 3.6 µM; in the assay with LOX IMVI melanoma it was 3.87 µM; with A498 renal, 16.3 µM; in the assay on OVCAR-3 ovarian it was 3.19 µM; in the assay with NCI-H460 lung it was 3.19 µM; with COLO 205 colon, 8.49 µM. In addition, the GI50 with HOP-92 NSCLC is 16.9 µM; with MALME-3M melanoma, 47 µM; in the assay with HCT-15 colon, 2.93 µM; with OVCAR-4 ovarian it was 9.07 µM. In addition, the TGI is more than 100 µM with NCI-H522 lung; 15.7 µM in the assay with LOX IMVI melanoma; 76.6 µM in the assay on A498 renal; 6.71 µM with OVCAR-3 ovarian; 13.8 µM in the assay on NCI-H460 lung; 43.4 µM in the assay on COLO 205 colon. For the same compound, the TGI with HOP-92 NSCLC was 36.9 µM; with MALME-3M melanoma it was more than 100 µM; with HCT-15 colon, more than 100 µM; in the assay with OVCAR-4 ovarian, more than 100 µM.

`O=C(Nc1ccc(Cl)cc1)Nc1nccs1`: the GI50 was 1.92 µM with NCI-H522 lung; 0.786 µM with LOX IMVI melanoma; 0.518 µM in the assay with A498 renal; 1.95 µM with OVCAR-3 ovarian; 0.487 µM in the assay with NCI-H460 lung; 0.75 µM in the assay with COLO 205 colon. Also, the GI50 in the assay on HOP-92 NSCLC was 2.14 µM; in the assay on MALME-3M melanoma, 3.37 µM; with HCT-15 colon, 0.46 µM; in the assay on OVCAR-4 ovarian it was 8.38 µM. The TGI is 14.4 µM with NCI-H522 lung; more than 100 µM with LOX IMVI melanoma; 16.9 µM in the assay with A498 renal; 7.85 µM with OVCAR-3 ovarian; 57.3 µM in the assay with NCI-H460 lung; 6.13 µM in the assay on COLO 205 colon. The TGI with HOP-92 NSCLC is 34 µM; in the assay with MALME-3M melanoma it was 54.1 µM; in the assay on HCT-15 colon, more than 100 µM; with OVCAR-4 ovarian, more than 100 µM.

As to `Cn1c(=S)c2[nH]c(SCCCc3ccccc3)nc2n(C)c1=O`, the TGI is more than 100 µM in the assay with NCI-H522 lung; more than 100 µM in the assay on LOX IMVI melanoma; 49.1 µM with A498 renal; more than 100 µM in the assay with OVCAR-3 ovarian; 42.1 µM in the assay on NCI-H460 lung; 25.4 µM in the assay on COLO 205 colon. The TGI in the assay on HOP-92 NSCLC, with MALME-3M melanoma, with HCT-15 colon and in the assay on OVCAR-4 ovarian was more than 100 µM throughout.

Values taken from PubChem BioAssay (NCI).
